Test results taken from US11504349B2, “Composition for preventing or treating TNF-related diseases, containing novel derivative as active ingredient, and method for inhibiting TNF activity by using same” (ILAB, priority 2017, dated 2022).

Experiments:
DBA/1 mice [1] = experiment: Therapeutic effect on rheumatoid arthritis, CIA mouse model; assay type: in vivo
Method: The CIA mouse model is a model in which arthritis is induced by collagen in DBA/1 mice. Thus, a 1:1 mixture of collagen type 2 and CFA was intradermally (ID) injected into the base of the tail of 8-week old DBA/1 mice. Two weeks after the primary immunization, a 1:1 mixture of collagen type 2 and IFA was intradermally (ID) injected into the base of the tail. After the second immunization, the pathology was measured twice a week, and the groups were divided equally so that the mean of the pathology of each group was 4 points. From Day 35 after the primary immunization, etanercept (4.5 mpk), adalimumab (1.2 mpk), the compound of Example 61 (25 mpk, 50 mpk, or 100 mpk) were orally administered three times a week, and the pathology was measured and recorded. The pathology score was measured as 1=inflammation and swelling of one toe, 2=inflammation of one or more toes or weak swelling of the whole sole of the foot, 3=severe swelling of the whole sole of the foot and swelling of ankle, 4=very severe inflammation and swelling of the whole foot or the bending and stiffness of foot (N=7 to 9/group, *P<0.01, **P<0.005, ***P<0.001).

DBA/1 mice [2] = experiment: CIA mouse model, alone and in combination with methotrexate; assay type: in vivo; conditions: Example 61 10 mpk PO once a day, MTX 5 mpk three times a week, to Day 73
Source text: A 1:1 mixture of collagen type 2 and CFA was intradermally (ID) injected into the base of the tail of DBA/1 mice. Two weeks after the primary immunization, a 1:1 mixture of bovine collagen type 2 and IFA (incomplete Freund's adjuvant) was intradermally (ID) injected into the base of the tail to prepare the rheumatoid arthritis animal model. The thus prepared mice were divided into […], i.e., a positive control group (MTX 5 mpk treated group: 10 mice), a group treated with the compound of Example 61 alone (10 mpk treated group: 9 mice), a group treated with MTX and the compound of Example 61 (each 5 mpk and 10 mpk; 9 mice), and a group treated with vehicle (a group treated with 0.05% CMC diluted in distilled water; 15 mice). […]
The severity of arthritis was determined by ascertaining the mean score of arthritis according to the following standard score in the forefoot and hindfoot twice a week from Day 0 to Day 73 after the primary immunization: 0=normal foot, 1=inflammation and swelling of one toe, 2=inflammation and swelling of more than one toe, but not all of the toes have inflammation and swelling, or weak swelling of all toes, 3=inflammation and swelling of all toes, and 4=severe inflammation and swelling or occlusion of foot.

etanercept = etanercept (Homo sapiens, UniProt P20333); experiment: SPR binding to etanercept; conditions: FIG. 2c
biotinylated TNF = target: T1, biotinylated TNF (Homo sapiens, UniProt P01375); experiment: Flow cytometry: binding of biotinylated TNF to Raw 264.7 cells; assay type: cell-based, mouse; conditions: compound 800, 200, 5 μM, FACS, FIG. 3a
T1 construct: purchased R&D Systems NFTAO
Method: First, macrophage Raw 264.7 cells were prepared (4×10^6 cells/ml), and the biotinylated TNF alone or in combination with the 4-benzopyranone derivative compound (800, 200, 5 μM) was added to the cells and reacted (30 min, 4° C.). 10 μl of avidin-FITC reagent was then added and reacted in the dark (30 min, 4° C.). After washing with RDF1 buffer, FACS analysis was carried out (BD Canto). Human TNF-alpha Biotinylated Fluorokine Flow Cytometry Kit (Cat #: NFTAO) of R&D Systems was used in the experiment.

TNF = TNF (Homo sapiens, UniProt P01375); experiment: TNF-neutralization bioassay: TNF-induced cell death of LM cells (MTT); assay type: cell-based
How it was run: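 Mouse fibroblast LM cells (5×10^4 cells/well) treated with TNF (20 ng/ml), compound and actinomycin D sensitizer for 24 h. Viability by MTT (4 h), absorbance at 570 nm. % TNF inhibition from OD relative to TNF-treated and untreated groups; IC50 and CC50 by Prism.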

TNF-overexpressing mice = experiment: Therapeutic effect on rheumatoid arthritis, TNF-overexpressing mouse model; assay type: in vivo
Method: First, until the mean level of arthritis of TNF-overexpres sing mice reached 8, the mice were raised. As such, etanercept (4.5 mpk), adalimumab (1.2 mpk), the compound of Example 61 (25 mpk, 50 mpk, or 100 mpk) were orally administered to the mice with rheumatoid arthritis from Week 15 to Week 23, three times a week, and the pathology was measured and recorded from Week 7 to Week 23 (N=5 to 6/group, *P<0.01, **P<0.005, ***P<0.001).

Sequence of TNF (P01375 77-233 limits assumed): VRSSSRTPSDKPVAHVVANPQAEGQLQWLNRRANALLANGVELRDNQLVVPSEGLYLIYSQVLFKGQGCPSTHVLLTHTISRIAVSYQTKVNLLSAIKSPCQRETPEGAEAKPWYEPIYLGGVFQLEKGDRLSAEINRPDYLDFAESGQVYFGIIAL
T1 sequence (P01375 77-233 limits assumed): as above
Sequence of etanercept (P20333 with tags, fused parts or gaps limits assumed): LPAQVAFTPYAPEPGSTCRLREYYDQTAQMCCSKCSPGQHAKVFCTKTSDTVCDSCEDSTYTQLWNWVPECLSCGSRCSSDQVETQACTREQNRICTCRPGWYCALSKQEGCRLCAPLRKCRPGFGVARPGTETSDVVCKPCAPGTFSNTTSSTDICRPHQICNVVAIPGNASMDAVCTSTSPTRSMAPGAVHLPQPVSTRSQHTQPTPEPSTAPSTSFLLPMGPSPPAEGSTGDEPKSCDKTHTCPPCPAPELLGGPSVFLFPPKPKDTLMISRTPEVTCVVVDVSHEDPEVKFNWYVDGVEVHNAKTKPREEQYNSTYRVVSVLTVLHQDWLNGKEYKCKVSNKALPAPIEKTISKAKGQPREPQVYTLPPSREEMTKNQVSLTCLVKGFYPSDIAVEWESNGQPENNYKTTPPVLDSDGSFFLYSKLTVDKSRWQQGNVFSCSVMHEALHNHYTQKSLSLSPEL

O=C(O)c1c(-c2cc(F)ccc2F)oc2cc(Cl)ccc2c1=O [Example 61, 2-(2,5-difluorophenyl)-3-carboxy-7-chloro-(4H)-4-benzopyranone]
therapeutic effect on rheumatoid arthritis (pathology score) (DBA/1 mice [1]; 25, 50 and 100 mpk PO three times a week, vs negative control): remarkable therapeutic effect
effect in comparison with etanercept (DBA/1 mice [1]; 25 mpk): non-inferior effect
efficacy in comparison with tofacitinib (25 mpk) (DBA/1 mice [1]; 25 mpk): considerably similar efficacy
therapeutic effect on arthritis (mean arthritis score) (DBA/1 mice [2]): therapeutic effect on arthritis was shown
binding to etanercept (etanercept): did not bind to etanercept
inhibitory activity against TNF-cell binding (biotinylated TNF): decreased the target cell binding of TNF to the basal level in a concentration-dependent manner
inhibition at 50 µM (TNF; compound 50 μM, TNF 20 ng/ml, actinomycin D, LM cells, 24 hours): 95.7%
IC50 (TNF; inhibition of TNF-induced LM cell death): 1800 nM
therapeutic effect on rheumatoid arthritis (pathology score) (TNF-overexpressing mice; 25, 50 and 100 mpk PO, three times a week, Week 15 to 23, vs negative control): remarkable therapeutic effect
effect in comparison with adalimumab and etanercept (TNF-overexpressing mice; 50 and 100 mpk PO, adalimumab 1.2 mpk, etanercept 4.5 mpk): non-inferior effect
